Our source for the IC50 values is patent US11174252B2, “Heterocyclic compounds as kinase inhibitors” (priority 2018, dated 2021).

Where two headings read alike, the source gives them in different places.

In one test the target is FMS kinase (Homo sapiens (Human), UniProt P07333). Nature of the test: LanthaScreen kinase assay (ATP, fluorescent-PolyGT substrate, TR-FRET). The class given is biochemical.
A further test has as its target CDK6 (Homo sapiens (Human), UniProt Q00534). As to the kind of experiment: biochemical. The class given is biochemical.
A further test has as its target CDK4 (Homo sapiens (Human), UniProt P11802). As to the kind of experiment: In vitro kinase inhibition, luminescence (ADP-Glo) with retinoblastoma substrate. The class given is biochemical.
Another test has as its target PI3Kδ kinase (Homo sapiens (Human), UniProt O00329). As to the kind of experiment: PI3Kδ kinase ADP-Glo assay (Reaction Biology Corporation). The note with it: read-out: PI3Kδ IC50. (In general: ADP-Glo first removes unused ATP, then detects ADP through luciferase.)
In the next test the test system is MCF-7. As to the kind of experiment: Cancer cell proliferation assay, single agent. The class given is cell-based. The note with it: Homo sapiens.
Another test deals with DU4475. Nature of the test: Cancer cell proliferation assay, single agent. The class given is cell-based. The note with it: Homo sapiens, DU-4475; DU4475 cells; treated for 24-168 hours; read-out: IC50 (nM) DU4475.
[1] abbreviates: MCF7, MCF-7 cells, treated for 24-168 hours, read-out: IC50 (nM) MCF-7.

Sequence of PI3Kδ kinase (O00329 whole entry): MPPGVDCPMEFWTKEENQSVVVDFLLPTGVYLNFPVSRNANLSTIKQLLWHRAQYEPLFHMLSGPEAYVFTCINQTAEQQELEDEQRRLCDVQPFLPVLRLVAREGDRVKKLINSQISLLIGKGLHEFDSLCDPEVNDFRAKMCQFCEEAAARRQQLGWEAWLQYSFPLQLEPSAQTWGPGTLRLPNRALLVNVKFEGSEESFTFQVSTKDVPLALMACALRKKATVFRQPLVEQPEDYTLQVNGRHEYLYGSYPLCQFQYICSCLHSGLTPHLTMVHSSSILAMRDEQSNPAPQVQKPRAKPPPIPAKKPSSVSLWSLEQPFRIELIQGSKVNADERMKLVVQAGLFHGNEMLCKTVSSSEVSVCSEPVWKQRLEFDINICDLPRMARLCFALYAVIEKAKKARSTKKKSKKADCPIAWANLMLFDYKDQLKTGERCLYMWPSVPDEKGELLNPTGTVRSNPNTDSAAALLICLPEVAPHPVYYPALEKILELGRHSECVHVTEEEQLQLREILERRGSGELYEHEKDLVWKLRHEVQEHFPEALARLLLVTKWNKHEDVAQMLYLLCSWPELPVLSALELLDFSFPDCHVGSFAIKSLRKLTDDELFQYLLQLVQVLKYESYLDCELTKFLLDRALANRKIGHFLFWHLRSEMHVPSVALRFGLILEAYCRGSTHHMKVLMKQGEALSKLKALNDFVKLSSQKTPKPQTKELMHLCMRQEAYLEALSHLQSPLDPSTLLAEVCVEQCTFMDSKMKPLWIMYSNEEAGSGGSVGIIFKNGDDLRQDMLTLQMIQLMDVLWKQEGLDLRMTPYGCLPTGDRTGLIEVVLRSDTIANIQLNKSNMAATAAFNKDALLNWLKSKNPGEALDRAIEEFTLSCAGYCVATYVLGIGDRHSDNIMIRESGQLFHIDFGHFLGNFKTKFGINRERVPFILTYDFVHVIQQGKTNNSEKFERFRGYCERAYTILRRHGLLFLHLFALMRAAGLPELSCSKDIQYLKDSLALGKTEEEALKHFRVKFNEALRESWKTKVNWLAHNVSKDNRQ
Sequence of PI3Kδ kinase (P27986 whole entry partner): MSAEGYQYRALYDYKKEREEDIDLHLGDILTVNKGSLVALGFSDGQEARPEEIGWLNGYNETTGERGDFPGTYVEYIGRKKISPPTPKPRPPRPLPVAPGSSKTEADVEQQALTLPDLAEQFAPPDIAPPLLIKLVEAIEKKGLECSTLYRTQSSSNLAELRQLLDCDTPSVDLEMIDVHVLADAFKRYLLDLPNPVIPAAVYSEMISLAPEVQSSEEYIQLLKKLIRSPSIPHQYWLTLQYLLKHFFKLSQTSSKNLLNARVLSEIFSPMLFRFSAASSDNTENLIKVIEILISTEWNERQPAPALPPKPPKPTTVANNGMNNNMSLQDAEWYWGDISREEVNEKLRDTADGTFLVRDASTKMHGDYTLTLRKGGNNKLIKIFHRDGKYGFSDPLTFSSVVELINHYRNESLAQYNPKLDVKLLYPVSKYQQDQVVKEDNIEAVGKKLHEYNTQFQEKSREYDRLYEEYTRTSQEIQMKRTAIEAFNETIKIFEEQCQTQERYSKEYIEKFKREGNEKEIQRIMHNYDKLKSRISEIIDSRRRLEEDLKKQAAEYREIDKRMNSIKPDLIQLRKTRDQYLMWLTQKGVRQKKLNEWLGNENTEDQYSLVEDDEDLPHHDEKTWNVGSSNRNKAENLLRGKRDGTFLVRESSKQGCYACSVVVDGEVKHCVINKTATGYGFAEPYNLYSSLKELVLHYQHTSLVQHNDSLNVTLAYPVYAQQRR
Sequence of CDK4 (P11802 whole entry): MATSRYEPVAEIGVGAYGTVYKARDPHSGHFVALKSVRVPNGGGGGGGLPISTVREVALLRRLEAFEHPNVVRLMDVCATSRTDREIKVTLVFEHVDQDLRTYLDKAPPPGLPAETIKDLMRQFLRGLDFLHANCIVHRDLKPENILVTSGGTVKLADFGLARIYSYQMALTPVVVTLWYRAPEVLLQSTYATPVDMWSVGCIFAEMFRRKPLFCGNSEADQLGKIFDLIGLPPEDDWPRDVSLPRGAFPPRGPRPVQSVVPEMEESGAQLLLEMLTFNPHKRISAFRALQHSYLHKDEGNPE
Sequence of CDK4 (P24385 whole entry partner): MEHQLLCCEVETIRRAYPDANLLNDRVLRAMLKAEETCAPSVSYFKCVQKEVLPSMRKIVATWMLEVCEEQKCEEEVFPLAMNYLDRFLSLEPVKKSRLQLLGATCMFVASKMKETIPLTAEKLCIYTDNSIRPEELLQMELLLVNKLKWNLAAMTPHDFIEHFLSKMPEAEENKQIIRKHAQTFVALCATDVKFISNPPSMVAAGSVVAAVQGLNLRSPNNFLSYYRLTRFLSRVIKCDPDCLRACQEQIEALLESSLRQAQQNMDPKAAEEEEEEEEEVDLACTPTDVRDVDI
Sequence of FMS kinase (P07333 20-972): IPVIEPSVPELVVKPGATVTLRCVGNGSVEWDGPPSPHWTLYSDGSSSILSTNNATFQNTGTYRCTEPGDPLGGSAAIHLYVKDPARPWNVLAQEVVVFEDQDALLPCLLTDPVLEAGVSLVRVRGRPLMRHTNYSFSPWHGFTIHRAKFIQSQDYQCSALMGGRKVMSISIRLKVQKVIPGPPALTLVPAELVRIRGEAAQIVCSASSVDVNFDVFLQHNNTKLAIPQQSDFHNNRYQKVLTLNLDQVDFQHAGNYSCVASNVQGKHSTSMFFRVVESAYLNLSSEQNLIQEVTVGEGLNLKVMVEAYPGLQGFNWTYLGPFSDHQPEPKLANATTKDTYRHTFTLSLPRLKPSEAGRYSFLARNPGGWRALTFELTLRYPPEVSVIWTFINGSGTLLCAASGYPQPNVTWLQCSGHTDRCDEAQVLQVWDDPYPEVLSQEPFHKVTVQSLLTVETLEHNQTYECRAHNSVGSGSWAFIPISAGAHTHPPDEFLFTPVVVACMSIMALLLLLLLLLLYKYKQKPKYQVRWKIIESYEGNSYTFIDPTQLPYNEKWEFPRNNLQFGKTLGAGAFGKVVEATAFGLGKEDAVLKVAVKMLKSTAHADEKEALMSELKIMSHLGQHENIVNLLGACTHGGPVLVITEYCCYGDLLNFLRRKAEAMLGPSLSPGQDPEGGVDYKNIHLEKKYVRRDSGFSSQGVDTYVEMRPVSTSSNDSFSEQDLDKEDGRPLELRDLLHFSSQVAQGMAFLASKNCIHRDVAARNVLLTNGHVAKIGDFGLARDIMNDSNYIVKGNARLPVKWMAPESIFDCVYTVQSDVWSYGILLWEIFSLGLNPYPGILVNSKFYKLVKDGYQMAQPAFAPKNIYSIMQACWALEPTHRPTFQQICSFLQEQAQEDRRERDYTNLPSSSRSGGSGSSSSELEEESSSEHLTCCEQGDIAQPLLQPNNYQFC

Take `CC(C)N1CCOc2c(F)cc(-c3nc(Nc4ccc(N5CCN(C(=O)CN(C)C)CC5)cn4)ncc3F)cc21` [Compound 441, 2-(dimethylamino)-1-(4-(6-((5-fluoro-4-(8-fluoro-4-isopropyl-3,4-dihydro-2H-benzo[b][1,4]oxazin-6-yl)pyrimidin-2-yl)amino)pyridin-3-yl)piperazin-1-yl)ethan-1-one]: the IC50 on FMS kinase was 526 nM; on CDK6 it was 0.6 nM; against CDK4 it was 1 nM; at PI3Kδ kinase it was more than 50 µM; with MCF-7 (setting [1]), 95 nM.
With `CC(C)N1CCOc2c(F)cc(-c3nc(Nc4ccc(N5CCS(=O)(=O)CC5)c(F)c4)ncc3F)cc21` [Compound 465, 4-(2-fluoro-4-((5-fluoro-4-(8-fluoro-4-isopropyl-3,4-dihydro-2H-benzo[b][1,4]oxazin-6-yl)pyrimidin-2-yl)amino)phenyl)thiomorpholine 1,1-dioxide], the IC50 against FMS kinase came out at 66 nM; against CDK6, 123 nM; against CDK4 it was 37 nM; on PI3Kδ kinase, 0.397 µM; in the test on MCF-7 (setting [1]), 80 nM.
For `CC(C)N1CCOc2c(F)cc(-c3nc(Nc4ccc(C5CCN(C(=O)CN(C)C)CC5)c(F)c4)ncc3F)cc21` [Compound 451, 2-(dimethylamino)-1-(4-(2-fluoro-4-((5-fluoro-4-(8-fluoro-4-isopropyl-3,4-dihydro-2H-benzo[b][1,4]oxazin-6-yl)pyrimidin-2-yl)amino)phenyl)piperidin-1-yl)ethan-1-one], the IC50 against FMS kinase was 28 nM; at CDK6, 27 nM; against CDK4, 28 nM; on PI3Kδ kinase, more than 50 µM; in the test with MCF-7 (setting [1]), 30 nM.
Turning to `CC(C)N1CCOc2c(F)cc(-c3nc(Nc4ccc(N5CCSCC5)c(F)c4)ncc3F)cc21` [Compound 469, 5-fluoro-4-(8-fluoro-4-isopropyl-3,4-dihydro-2H-benzo[b][1,4]oxazin-6-yl)-N-(3-fluoro-4-thiomorpholinophenyl)pyrimidin-2-amine], the IC50 at FMS kinase was 46 nM; on PI3Kδ kinase it was more than 30 µM; in the test on MCF-7 (setting [1]), 495 nM.
As to `CC(C)N1CCOc2c(F)cc(-c3nc(Nc4ccc(N5CCNCC5)nc4)ncc3F)cc21` [Compound 23, 5-fluoro-4-(8-fluoro-4-isopropyl-3,4-dihydro-2H-benzo[b][1,4]oxazin-6-yl)-N-(6-(piperazin-1-yl)pyridin-3-yl)pyrimidin-2-amine], the IC50 was 25 nM against FMS kinase; 4.88 µM at PI3Kδ kinase; less than 10 nM with MCF-7 (MCF7, read-out: IC50 (nM) MCF-7).
For the molecule `CC(C)N1CCOc2c(F)cc(-c3nc(Nc4ccc(N5CCC(O)CC5)c(F)c4)ncc3F)cc21` [Compound 445, 1-(2-fluoro-4-((5-fluoro-4-(8-fluoro-4-isopropyl-3,4-dihydro-2H-benzo[b][1,4]oxazin-6-yl)pyrimidin-2-yl)amino)phenyl)piperidin-4-ol], the IC50 on FMS kinase is 69 nM; on CDK6, 69 nM; on CDK4, 31 nM; on PI3Kδ kinase it was more than 50 µM; in the test with MCF-7 (setting [1]), 120 nM.
As for `CN1CCC(c2ccc(Nc3ncc(F)c(-c4cc(F)c5c(c4)N(C)CCO5)n3)cc2F)CC1` [Compound 466, 5-fluoro-N-(3-fluoro-4-(1-methylpiperidin-4-yl)phenyl)-4-(8-fluoro-4-methyl-3,4-dihydro-2H-benzo[b][1,4]oxazin-6-yl)pyrimidin-2-amine], the IC50 against FMS kinase amounted to 35 nM; on CDK6, 10 nM; on CDK4, 4 nM; at PI3Kδ kinase it was 1.11 µM; with MCF-7 (setting [1]), 105 nM.
Consider `CC(C)N1CCOc2c(F)cc(-c3nc(Nc4ccc(N5CCN(C(=O)CN(C)C)CC5)cc4)ncc3F)cc21` [Compound 440, 2-(dimethylamino)-1-(4-(4-((5-fluoro-4-(8-fluoro-4-isopropyl-3,4-dihydro-2H-benzo[b][1,4]oxazin-6-yl)pyrimidin-2-yl)amino)phenyl)piperazin-1-yl)ethan-1-one], for which the IC50 came to 24 nM against FMS kinase; 2 nM against CDK6; 2 nM against CDK4; 35 µM on PI3Kδ kinase; 30 nM with MCF-7 (setting [1]).
For `CC(C)N1CCOc2c(F)cc(-c3nc(Nc4cc(F)c(C5CCNCC5)cn4)ncc3F)cc21` [Compound 443, 5-fluoro-4-(8-fluoro-4-isopropyl-3,4-dihydro-2H-benzo[b][1,4]oxazin-6-yl)-N-(4-fluoro-5-(piperidin-4-yl)pyridin-2-yl)pyrimidin-2-amine], the IC50 was 950 nM against FMS kinase; 3 nM on CDK6; 3 nM against CDK4; more than 50 µM at PI3Kδ kinase; 285 nM in the test with MCF-7 (setting [1]).
Consider `CC(C)N1CCOc2c(F)cc(-c3nc(Nc4ccc5c(c4)CN(C(=O)CN(C)C)CC5)ncc3F)cc21` [Compound 455, 2-(dimethylamino)-1-(7-((5-fluoro-4-(8-fluoro-4-isopropyl-3,4-dihydro-2H-benzo[b][1,4]oxazin-6-yl)pyrimidin-2-yl)amino)-3,4-dihydroisoquinolin-2(1H)-yl)ethan-1-one], for which the IC50 against FMS kinase was 1.5 nM; on CDK6 it was 3 nM; against CDK4, 4.5 nM; at PI3Kδ kinase it was 13.1 µM; in the test on MCF-7 (setting [1]), less than 4 nM.
The matching figures for `CC(C)N1CCOc2c(F)cc(-c3nc(Nc4cc5n(n4)CCN(C)C5)ncc3F)cc21` [Compound 444, N-(5-fluoro-4-(8-fluoro-4-isopropyl-3,4-dihydro-2H-benzo[b][1,4]oxazin-6-yl)pyrimidin-2-yl)-5-methyl-4,5,6,7-tetrahydropyrazolo[1,5-a]pyrazin-2-amine]: 67 nM, 3.4 nM, 1.6 nM, more than 50 µM and 1250 nM.
As for `CC(C)N1CCOc2c(F)cc(-c3nc(Nc4cnn(C5CCNCC5)c4)ncc3F)cc21` [Compound 448, 5-fluoro-4-(8-fluoro-4-isopropyl-3,4-dihydro-2H-benzo[b][1,4]oxazin-6-yl)-N-(1-(piperidin-4-yl)-1H-pyrazol-4-yl)pyrimidin-2-amine], the IC50 against FMS kinase was determined as 8 nM; on CDK4 it was 3.2 nM; on PI3Kδ kinase, 8.02 µM; with MCF-7 (setting [1]), 50 nM.
As to `CC(C)N1CCOc2c(F)cc(-c3nc(Nc4ccc(C(=O)N5CCOCC5)c(F)c4)ncc3F)cc21` [Compound 457, (2-fluoro-4-((5-fluoro-4-(8-fluoro-4-isopropyl-3,4-dihydro-2H-benzo[b][1,4]oxazin-6-yl)pyrimidin-2-yl)amino)phenyl)(morpholino)methanone], the IC50 against FMS kinase was determined as 68 nM; against CDK6 it was 7.5 nM; at CDK4, 3.5 nM; in the test with MCF-7 (setting [1]), 55 nM; in the test with DU4475, 30 nM.
As to `CC(C)N1CCOc2c(F)cc(-c3nc(Nc4ccc(C5CCN(C(=O)CN(C)C)CC5)cn4)ncc3F)cc21` [Compound 450, 2-(dimethylamino)-1-(4-(6-((5-fluoro-4-(8-fluoro-4-isopropyl-3,4-dihydro-2H-benzo[b][1,4]oxazin-6-yl)pyrimidin-2-yl)amino)pyridin-3-yl)piperidin-1-yl)ethan-1-one], the IC50 is 214 nM on FMS kinase; 0.3 nM on CDK6; 0.5 nM against CDK4; more than 50 µM at PI3Kδ kinase; 240 nM in the test with MCF-7 (setting [1]).
Regarding `CC(C)N1CCOc2c(F)cc(-c3nc(Nc4ccc(N5CCN(C(=O)N(C)C)CC5)cn4)ncc3F)cc21` [Compound 453, 4-(6-((5-fluoro-4-(8-fluoro-4-isopropyl-3,4-dihydro-2H-benzo[b][1,4]oxazin-6-yl)pyrimidin-2-yl)amino)pyridin-3-yl)-N,N-dimethylpiperazine-1-carboxamide], the concentration for half-maximal inhibition (IC50) against FMS kinase was more than 5000 nM; against CDK6 it was 30 nM; on CDK4, 12 nM; on PI3Kδ kinase, more than 50 µM; in the test with MCF-7 (setting [1]), 695 nM.
For `CCCN1CCOc2c(F)cc(-c3nc(Nc4ccc(N5CCC(N(C)C)CC5)c(F)c4)ncc3F)cc21` [Compound 468, N-(4-(4-(dimethylamino)piperidin-1-yl)-3-fluorophenyl)-5-fluoro-4-(8-fluoro-4-propyl-3,4-dihydro-2H-benzo[b][1,4]oxazin-6-yl)pyrimidin-2-amine], in that order: 36 nM, 8 nM, 8 nM, 3.79 µM and 95 nM.
On to `CN1CCOc2c(F)cc(-c3nc(Nc4ccc(N5CCC(N(C)C)CC5)c(F)c4)ncc3F)cc21` [Compound 467, N-(4-(4-(dimethylamino)piperidin-1-yl)-3-fluorophenyl)-5-fluoro-4-(8-fluoro-4-methyl-3,4-dihydro-2H-benzo[b][1,4]oxazin-6-yl)pyrimidin-2-amine], for which the IC50 came out at 14 nM against FMS kinase; 5 nM against CDK6; 4 nM on CDK4; 2.43 µM on PI3Kδ kinase; 185 nM with MCF-7 (setting [1]).
`CC(C)N1CCOc2c(F)cc(-c3nc(Nc4ccc(C(=O)N5CCC(N(C)C)CC5)c(F)c4)ncc3F)cc21` [Compound 463, (4-(dimethylamino)piperidin-1-yl)(2-fluoro-4-((5-fluoro-4-(8-fluoro-4-isopropyl-3,4-dihydro-2H-benzo[b][1,4]oxazin-6-yl)pyrimidin-2-yl)amino)phenyl)methanone]: the IC50 at FMS kinase stood at 17 nM; at CDK6, 3.5 nM; against CDK4, 1.5 nM; in the test with MCF-7 (setting [1]) it was 20 nM; in the test with DU4475, 25 nM.

One may read the IC50 as the midpoint of a concentration-inhibition curve.
